From patent publication US6780972B2, “Method for the synthesis of peptide salts, their use and the pharmaceutical preparations, containing peptide salts” (Zentaris GmbH, priority 2000, dated 2004)
Non-standard residues stand in square brackets, D forms with d. Residues, ends and D or L forms follow the SMILES beside them. dPhe(4-Cl) = N[C@H](Cc1ccc(Cl)cc1)C(=O)O; d2Nal = N[C@H](Cc1ccc2ccccc2c1)C(=O)O; dCit = NC(=O)NCCC[C@@H](N)C(=O)O; d3Pal = N[C@H](Cc1cccnc1)C(=O)O

What was measured:
[1] = Cetrorelix plasma concentration and bioavailability after administration of the Cetrorelix embonate (2:1) lyophilysate in man (Clinical Phase I); format: in vivo
Protocol: (§1) The Cetrorelix embonate (2:1) lyophilysate (30 mg), obtained according to Example 1, is resuspended in 2 mL of water for injection purposes and can then be administered parenterally, preferable subcutaneously (s.c.) or intramuscularly (i.m.)
(§2) For the s.c. administration, the bioavailability of the Cetrorelix embonate (2:1) is about 30 to 50% (100%=intravenously administered Cetrolix acetate). […] The duration of the effect depends on the dose; for a dose of 30 to 150 mg, it is 2 to 8 weeks or longer. The inventive Cetrorelix embonate (2:1) lyophilysate has already been investigated in Clinical Phase I in man.
(§3) The period of action exceeded 700 hours. The plasma level was constant at about 2 ng/mL 150 hours after the administration. The bioavailability was abut 40%.

[2] = Duration of effect / period of action after administration in man; format: in vivo
Protocol: as §1, §2, §3

Question: Which “burst effect (ca. 100 ng/mL)” value ([1]; 60 mg in man, FIG. 1) does the source give for `CC(=O)N[C@H](Cc1ccc2ccccc2c1)C(=O)N[C@H](Cc1ccc(Cl)cc1)C(=O)N[C@H](Cc1cccnc1)C(=O)N[C@@H](CO)C(=O)N[C@@H](Cc1ccc(O)cc1)C(=O)N[C@H](CCCNC(N)=O)C(=O)N[C@@H](CC(C)C)C(=O)N[C@@H](CCCNC(=N)N)C(=O)N1CCC[C@H]1C(=O)N[C@H](C)C(N)=O` [Cetrorelix embonate (2:1), Cetrorelix embonate] (Ac-[d2Nal][dPhe(4-Cl)][d3Pal]SY[dCit]LRP[dA]-NH2; N-terminus and C-terminus assumed) here?
Answer: could not be detected

Question: What about the bioavailability ([1]; human, in vivo, subcutaneous, s.c. administration, 100% = intravenously administered Cetrolix acetate) of the same compound?
Answer: 30 to 50%

Question: And the bioavailability ([1]; human, plasma, 60 mg in man, FIG. 1)?
Answer: ~40%

Question: And the level at 150 h ([1]; human, plasma, 60 mg in man, constant 150 hours after the administration, FIG. 1)?
Answer: ~2 ng/mL

Question: And the burst effect ([1]; in patients)?
Answer: slight or even absent

Question: What about the period of action ([2]; 60 mg in man, FIG. 1) of the same compound?
Answer: exceeded 700 hours

Question: And the “duration of the effect” value ([2]; dose of 30 to 150 mg, depends on the dose, 'or longer')?
Answer: 2 to 8 weeks
